What was measured:
mice [1] = experiment: Amphetamine-induced hyperlocomotion test in mice; type: in vivo; conditions: doses 0.3–2.5 mg/kg ip, amphetamine 2.5 mg/kg sc
Protocol: Locomotor activity was recorded in actometers separately for each mouse. After 30 min of adaptation, the number of crossings of photo beams was measured during 60 min. […] MK-801 (0.2 mg/kg, ip) was administered 15 min before the experiment, while amphetamine (2.5 mg/kg) was administered subcutaneously (sc) 30 min before the experiment. […] Values are expressed as means ± SD, n = 8–10 mice per group. Statistical analysis: one-way ANOVA (Newman–Keuls post hoc), * p < 0.05, ** p < 0.01, *** p < 0.001.
The test was performed according to the method described by Carlsson et al.. The mobility of the animals was measured in actometers, i.e., in plastic Opto M3 cages (22 × 12 × 13 cm) connected to a computer with MultiDevice Software v.1.30 (Columbus Instruments, Columbus, OH, USA). The experimental cages were equipped with infrared sources on one side and sensors receiving the emitted rays on the other side of the cage. The crossing of each beam of infrared rays was classified as motor activity. The animals were placed individually in experimental cages immediately after administration of the tested compound, 30 min before the start of the test, to adapt to the new conditions and exclude the occurrence of hyperactivity caused by the change of the environment. Spontaneous locomotor activity was measured every 5 min for 60 min. Mice received two injections: of the tested compound or reference substance (30 min before the test, ip) and of amphetamine (2.5 mg/kg, 30 min before the test, sc) or MK-801 (0.2 mg/kg, 15 min before the test, ip). Control groups received an injection of saline and amphetamine or MK-801, or two injections of saline, respectively. Olanzapine was used as a reference compound.

mice [2] = experiment: Marble burying test in mice; type: in vivo
Protocol: Figure 3 The effect of JJGW08 and aripiprazole on the number of buried marbles by mice. Mice were placed individually in cages with a 5 cm bedding layer, where 20 glass balls were placed. The number of buried marbles after 30 min of the test was counted. JJGW08 was administered intraperitoneally (ip) 30 min before the test. The control group received 0.9% NaCl solution (ip) or 1% Tween (ip) for aripiprazole. Values are expressed as means ± SD in the case of one-way ANOVA (aripiprazole) or median with interquartile range in the case of Kruskal–Wallis test (JJGW08), n = 8–10 mice per group. Statistical analysis: one-way ANOVA (Newman–Keuls post hoc), and Kruskal–Wallis test (Dunn post hoc), * p < 0.05, ** p < 0.01, *** p < 0.001.
The test was conducted according to the method described by Broekkamp et al. with minor modifications. Mice were placed individually in plastic cages, identical to their home cages, that contained a layer of bedding and 20 glass balls (1.6 cm in diameter) arranged in a pattern 4 × 5. After 30 min of the experiment, the mice were removed from the cages, and the number of balls buried to at least 2/3 of their size was counted.

human D2 receptor = target: T1, human D2 receptor (Homo sapiens, UniProt P14416); experiment: Functional assay (aequorin, calcium mobilization) in CHO-K1 cells, D2 receptor; type: cell-based
T1 construct: host or cells: CHO-K1
Protocol: Tested and reference compounds were dissolved in dimethyl sulfoxide (DMSO) at a concentration of 10 mM. Serial dilutions were prepared in a 96-well microplate in assay buffer, and 8 to 10 concentrations were tested. […] The assay was executed according to the previously described protocol [45]. After thawing, cells were transferred to assay buffer (DMEM/HAM’s F12 with 0.1% protease-free BSA) and centrifuged. The cell pellet was resuspended in assay buffer, and coelenterazine h was added at final concentrations of 5 µM. The cell suspension was incubated at 16 °C (or 21 °C), protected from light with constant agitation for 16 h (or 4 h), and then diluted with assay buffer to the concentration of 100,000 cells/mL (or 250,000 cells/mL). After 1 h of incubation, 50 µL of the cell’s suspension was dispensed using automatic injectors built into the radiometric and luminescence plate counter MicroBeta2 LumiJET (PerkinElmer, Waltham, NA, USA) into white opaque 96-well microplates preloaded with test compounds. Immediate light emission generated following calcium mobilization was recorded for 30 s. In antagonist mode, after 25–30 min of incubation, the reference agonist was added to the above assay mix, and light emission was re-recorded. […] IC50 and EC50 values were calculated.

mice [3] = experiment: Rotarod test in mice; type: in vivo; conditions: for Animals That Fell from Rotating Rod: 30 min before test; for Time before Animals Fell: max 60 s, mean ± SD
Protocol: Mice were trained on the rotarod apparatus (May Commat RR0711, Ankara, Turkey; rod diameter: 2 cm) for 3 consecutive days. During each training session, animals were placed for 3 min on the rotating rod (24 rpm, constant speed) with unlimited trials. The experiment was performed 24 h after the last training session. On the test day, mice were injected with studied compounds and, 30 min later, placed on the rotarod. The criterion of motor impairments was the inability of the animal to remain on the rotating rod for 60 s.

rats = experiment: Open field test after MK-801 administration in rats (MK-801-induced hyperlocomotion); type: in vivo; conditions: doses 1–30 mg/kg ip, MK-801 0.3 mg/kg ip
Protocol: Figure 4 The effect of JJGW08 and clozapine on MK-801-induced hyperlocomotion in rats. After the habituation period (30 min, 24 h before the test), locomotor activity was measured individually for each animal in the special apparatus. The walked distance (cm) was monitored at 10-min intervals for 30 min, using a computerized system that tracked the animals’ movement and behavior. JJGW08 and clozapine were administered intraperitoneally (ip) 30 or 60 min before the test, respectively, while MK-801 (0.3 mg/kg) was administered ip 15 min before the start of the experiment. The control group received 0.9% NaCl solution (ip) (or 1% Tween (ip) for clozapine) and MK-801 (0.3 mg/kg, ip). Values are expressed as mean ± SD, n = 7–8 rats per group. Statistical analysis: one-way ANOVA (Newman–Keuls post hoc) * p < 0.05, ** p < 0.01, *** p < 0.001.
The experiment was evaluated according to the method described earlier. It was performed in a soundproof chamber with a 30-min habituation period 24 h before the procedure. The open field apparatus consisted of four black, octagonal, stainless steel arenas (diameter: 80 cm) with 30 cm high walls. Each arena was divided into a peripheral and central sector. The peripheral sector was defined as the region within 20 cm from the walls. The approximate light intensity was 15 lx in the central point of the arena and 4 lx close to its walls.
Individual rats were placed in the central part of the open field and allowed to explore the whole arena for 30 min under dim light (approximately 10 lx) and continuous white noise (65 dB). Forward locomotion (cm/30 min) was registered in 10-min intervals for 30 min and analyzed with the aid of a computerized video tracking system (Videomot, TSE, Bad Homburg, Germany). The arenas were cleaned between tests with 20% (v/v) alcohol and allowed to dry.
The tested compound was administered ip 30 min before the experiment at the dose range of 0.3–30.0 mg/kg, and MK-801 (0.3 mg/kg,) was administered ip 15 min before the procedure. […]

[4] = D2, antagonist mode, 30 nM apomorphine as reference agonist

T1 sequence (P14416 whole entry): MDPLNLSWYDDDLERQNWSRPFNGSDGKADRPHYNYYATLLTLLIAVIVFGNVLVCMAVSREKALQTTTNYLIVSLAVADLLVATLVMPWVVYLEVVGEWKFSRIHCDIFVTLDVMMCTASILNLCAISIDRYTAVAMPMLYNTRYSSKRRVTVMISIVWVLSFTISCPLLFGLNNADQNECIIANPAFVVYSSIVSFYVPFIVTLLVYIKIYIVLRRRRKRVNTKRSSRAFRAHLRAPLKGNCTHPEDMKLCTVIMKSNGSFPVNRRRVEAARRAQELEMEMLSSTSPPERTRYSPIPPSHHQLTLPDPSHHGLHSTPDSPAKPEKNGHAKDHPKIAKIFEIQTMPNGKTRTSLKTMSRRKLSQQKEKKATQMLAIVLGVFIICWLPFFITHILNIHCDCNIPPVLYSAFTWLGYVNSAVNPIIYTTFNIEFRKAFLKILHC

## COc1ccccc1N1CCN(CCCCCOc2ccccc2C(N)=O)CC1.Cl [JJGW08, 2-{5-[4-(2-metoksyfenylo)piperazin-1-ylo]pentoxy}benzamide hydrochloride]
Mice [1]
  reduction of amphetamine-induced hyperlocomotion: 52–82%
Mice [2]; 1.25 mg/kg ip
  reduction of the number of buried marbles: 65%
Mice [2]; 2.5 mg/kg ip
  reduction of the number of buried marbles: 84%
Human D2 receptor; D2, agonist mode
  Agonist Mode Emax%: 13%
Human D2 receptor; [4]
  Antagonist Mode Emax%: 0%
  Antagonist Mode pIC50 ± Range: 7.9 ± 0.0
Human D2 receptor; D2, antagonist mode, Cheng equation
  Kb: 2 nM
Human D2 receptor; D2 functional assay
  antagonistic properties (in words): strong antagonistic properties
Mice [3]
  TD50 relative to the lowest antipsychotic-like dose: 121 fold
Mice [3]; 10 mg/kg ip
  Animals That Fell from Rotating Rod: 2/8
  Time before Animals Fell: 58 ± 4 s
Mice [3]; 20 mg/kg ip
  Animals That Fell from Rotating Rod: 4/8
  Time before Animals Fell: 41 ± 24 s
Mice [3]; 30 mg/kg ip
  Animals That Fell from Rotating Rod: 6/8
  Time before Animals Fell: 20 ± 25 s
Mice [3]; ip, dose at which 50% of the animals could not stay on the rotating rod
  TD50: 18 (11–29) mg/kg
rats
  reduction of MK-801-induced hyperlocomotion in the open field: 36–82%

Source: publication PMC9781916, “Antipsychotic- and Anxiolytic-like Properties of a Multimodal Compound JJGW08 in Rodents” (International Journal of Molecular Sciences, 2022)
